Results taken from patent US12054562B2, “Cell-permeable inhibitory agent and methods of use thereof in treatment of cognitive and mood disorders” (priority 2015, dated 2024).

Key:
[1] = test system: GABAA receptor-mediated tonic current in hippocampal neurons; assay: Whole-cell voltage-clamp recordings of tonic current in astrocyte-neuron co-cultures; type: cell-based, mouse; conditions: co-treatment with etomidate 1 μM; recordings 24 h later
[2] = test system: etomidate-induced memory deficits in mice; assay: Novel object recognition task, treatment paradigm; type: in vivo, mouse; conditions: peptide given the day after etomidate, 4 hrs before behavioral testing
Protocol: In the present study, mice were handled two times a day, 5 min each before start of behavioral experiments. Object recognition was assessed in a circle opaque chamber with the diameter of 38.5 cm in a regular lit room. Each mouse was habituated to the chamber for 5 min since day 3. During the training phase, the mouse was allowed to explore two identical objects for 5 min. The mouse was then returned to its home cage for a retention period of 1 h. The mouse was reintroduced to the training context and presented with one familiar object and one novel object for 5 min. Movement and interaction with the objects was recorded with a video camera that was mounted above the chamber. The exploratory behavior and mouse activity was analyzed blindly by a person with a good training and the software EthoVision, XT v11.5 provided by the Noldus Information Tech Inc., (Leesburg VA, USA). Exploratory behavior was defined as sniffing, licking, or touching the object while facing the object. Memory was assessed by measuring the novelty preference ratio (i.e., the ratio of time spent exploring the novel object to the time spent exploring both objects). […] Total interaction time with both objects was compared between groups to determine whether the treatments affected locomotor activity or exploration during the testing phase. […]

[3] = target: T1, gephyrin and α5 subunit interaction (Mus musculus, UniProt Q8BUV3); assay: Co-IP and WB of gephyrin and α5 subunit interaction; type: binding; conditions: immunoprecipitates from Example 1, hippocampal tissue
T1 construct: from tissue; host or cells: hippocampus of adult mice
T1 sequence (Q8BUV3 1-769): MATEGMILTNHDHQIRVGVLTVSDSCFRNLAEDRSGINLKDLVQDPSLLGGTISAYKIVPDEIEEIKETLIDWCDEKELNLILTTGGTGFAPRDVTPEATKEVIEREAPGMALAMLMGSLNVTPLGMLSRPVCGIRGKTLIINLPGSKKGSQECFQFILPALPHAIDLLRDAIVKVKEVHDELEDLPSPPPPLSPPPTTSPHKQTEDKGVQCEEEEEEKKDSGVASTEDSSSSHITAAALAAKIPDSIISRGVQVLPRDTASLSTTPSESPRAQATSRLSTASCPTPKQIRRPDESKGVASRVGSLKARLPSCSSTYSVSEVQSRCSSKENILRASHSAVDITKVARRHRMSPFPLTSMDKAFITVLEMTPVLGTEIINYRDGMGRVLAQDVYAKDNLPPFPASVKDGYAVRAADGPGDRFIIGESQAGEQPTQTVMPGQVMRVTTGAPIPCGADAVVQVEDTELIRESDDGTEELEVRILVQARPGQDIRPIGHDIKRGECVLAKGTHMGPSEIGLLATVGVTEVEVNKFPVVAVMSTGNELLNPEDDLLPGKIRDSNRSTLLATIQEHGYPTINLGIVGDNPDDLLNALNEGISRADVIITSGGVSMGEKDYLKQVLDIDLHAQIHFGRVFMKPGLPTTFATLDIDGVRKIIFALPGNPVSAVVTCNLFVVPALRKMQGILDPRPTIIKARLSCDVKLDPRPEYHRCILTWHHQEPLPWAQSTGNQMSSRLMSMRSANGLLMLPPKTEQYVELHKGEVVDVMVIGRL
Protocol: For the immunoprecipitation experiment, the tissue lysate containing […] protein (in 250 μl) was incubated with 20 μM (20 μl) of either the inhibitory peptide (SEQ ID NO:1) or scramble peptide (SEQ ID NO:5) without TAT sequence. One hour following the incubation, the antibodies (2-4 μg) against either α5 subunit (cat #sc—31417, Santa Cruz Biotechnology, Inc., 10410 Finnell St. Dallas, TX, 75220, USA) or radixin (cat #ab91312, Abcam Inc., c/o 913860, PO Box 4090 Stn A, Toronto, ON M5W 0E9), or 4 μg of non-specific IgG protein (cat #sc—2028, Santa Cruz Biotechnology, Inc., 10410 Finnell St. Dallas, TX, 75220, USA), were added to the lysate solution. After gently shaking overnight at 4° C., the immune complexes were precipitated with protein A/G plus-agarose beads (Santa Cruz Biotechnology, Inc., 10410 Finnell St. Dallas, TX, 75220, USA). Forty microliters of the A/G plus agarose beads were added to the immune complex solution and shaking gently for 2 h at 4° C. After spin with the microcentrifuge (Eppendorf Mini-Spin Plus, Marshall Scientific, 424 Route 125, Brentwood, NH 03833, USA), the immunoprecipitates were washed four times with ice-cold PBS, then resuspended in 2× Laemmli sample loading buffer containing 5% […], and boiled for 5 min. These samples were subjected to Western blot experiment. […]

NYFTKRGWAWDGKKAL [inhibitory peptide]
etomidate-induced increase in tonic current [1]: reversed
memory deficits in etomidate-treated mice (NOR, treatment) [2]: reversed
gephyrin and α5 subunit interaction [3]: did not interfere
